Data published in patent US5409938A, “Antimalarial korupensamines and pharmaceutical compositions and medical uses thereof” (The United States of America as represented by the …, priority 1994, dated 1995).
Values after ≈ are worked out from the molar mass of the structure shown. One block for each compound: values may come before it.

Tests used:
[1] = Bringmann, et al., DE 41 17 080; cited from earlier work
[2] = Sharma, et al., 1975; cited from earlier work
[3] = Ruangrungsi, et al., 1985; cited from earlier work
Spodoptera littoralis = settings: larvae of Spodoptera littoralis; Grimm 1992; Bringmann 1992; cited from earlier work
Plasmodium falciparum = test: in vitro antimalarial activity, 3H-hypoxanthine incorporation, P. falciparum (strain NF 54/64, clone A1A9) in human erythrocytes; type: cell-based; settings: averages of 6 repeat tests
Description: This example illustrates the antimalarial activity of the korupensamines of the present invention. […] Continuous in vitro cultures of asexual erythrocytic stages of P. falciparum (strain NF 54/64, clone A1A9) were maintained following essentially the method of Trager and Jensen (Science, 193, 673-675, 1976) at 37° C. under an atmosphere of 5% CO2, 5% O2, and 90% N2. The host cells were human erythrocytes (A or O Rh+). The culture medium was RPMI 1640 (Gibco), containing HEPES (BDH; 4.57 gL^-1) glucose (Sigma; 1.54 gL^-1), 5% NaHCO3 (Merck; 34.78 mlL^-1),and gentamycin (Merck; 8.70 mlL^-1) supplemented with 10% human plasma (A Rh+). Parasites were subinoculated every 3-4 days with initial conditions of 1% parasitemia and 1% hematocrit.
In vitro testing with P. falciparum was as follows. Each compound was dissolved in DMSO at a concentration of 20 mg ml^-1. These solutions were further diluted with physiological saline to obtain a stock solution of 500 μg ml^-1. […]
The test protocol was performed in vitro, based upon the method of Desjardins, et al. (Antimicrobial Agents Chemother., 16, 710-718, 1979). […] The filter papers were dried for 2 h at 52° C. and their radioactivity was measured by liquid scintillation counting in Optiscint HiSafe (LKB Pharmacia).
The mean results, obtained as counts per min (cpm), were expressed as percentages of incorporation or growth inhibition. […]

Plasmodium berghei = test: in vitro antimalarial activity, 3H-hypoxanthine incorporation, P. berghei (Anka strain); type: cell-based; settings: averages of 6 repeat tests
P. berghei (Anka strain) = test: in vivo antimalarial activity in P. berghei-infected OF1 mice, parasitemia from blood smears after 4 days
Description: Outbred, female, six-week-old OF1 mice (six mice per group treated and nontreated [control]) were inoculated intraperitoneally on day 0 with 10^6 P. berghei (Anka strain) blood forms. Two hours later, they were administered orally 50 mg/kg of korupensamine A. A second, third, and fourth treatment (50 mg/kg each) was given after 24, 48, and 72 h respectively (days 1, 2, and 3). […] The parasitemia (%) in the control (not drug treated) group was 2.45 (range 2.21-2.69; N=6) compared to 0.69 (range 0.48-0.91; N=6) for the treated group.

Compound: COc1cc(C)cc2ccc(-c3ccc4c(c3O)[C@@H](C)N[C@H](C)C4)c(O)c12 [Dioncophylline B]
- activity as fungicides [1]: active as fungicides

Compound: COc1cc2c(c(OC)c1-c1c(C)cc3cccc(OC)c3c1O)C(C)=N[C@@H](C)C2 [ancistrocladidine]
- spasmolytic activity [2]: pronounced spasmolytic activity

Compound: COc1cc2c(c(OC)c1-c1c(C)cc3cccc(OC)c3c1O)[C@@H](C)N(C)[C@@H](C)C2 [ancistrotectorine]
- antitumor activity [3]: antitumor activity

Compound: COc1cccc2c(-c3ccc4c(c3O)C(C)NC(C)C4)c(C)cc(OC)c12 (centres unmarked) [dioncophylline A]
- activity as fungicides [1]: active as fungicides
- antifeedant effect (Spodoptera littoralis): antifeedant effect against the larvae of Spodoptera littoralis

- IC50 (Plasmodium falciparum; Plasmodium falciparum, Erythrocyte, NP54/64, clone A1A9, read-out: IC50 P. faciparum): 0.307 µg/mL (≈ 0.809 µM)
- IC50 (Plasmodium berghei; Plasmodium berghei): 0.555 µg/mL (≈ 1.46 µM)
Compound: COc1cc(C)cc2c(-c3c(O)cc(O)c4c3C[C@@H](C)N[C@@H]4C)ccc(O)c12 [korupensamine A]
- parasitemia (%) in the treated group (P. berghei (Anka strain); 50 mg/kg orally x4 (2 h after inoculation, then 24, 48, 72 h), after 4 days, N=6, control 2.45 (range 2.21-2.69; N=6)): 0.69 (range 0.48-0.91; N=6) %
- inhibition of the development of P. berghei erythrocytic forms (P. berghei (Anka strain); 50 mg/kg orally x4, blood smears after 4 days): marked inhibition of the development of P. berghei erythrocytic forms

- IC50 P. faciparum (Plasmodium falciparum; NP54/64, clone A1A9): 0.175 µg/mL (≈ 0.461 µM)
- IC50 P. berghei (Plasmodium berghei): 0.490 µg/mL (≈ 1.29 µM)
Compound: COc1cc(C)cc2c(-c3c(O)cc(O)c4c3C[C@@H](C)N[C@@H]4C)ccc(O)c12 [korupensamine B]
